Measurements reported in the NIST ThermoML archive (doi:10.1016/j.fluid.2014.12.040).
Numbers after ± are expanded uncertainties. Each block holds one compound with its values, some of them ahead of it.

How the values were obtained:
[1] = for surface tension liquid-gas: Wilhelmy-plate method; for mass density: 100 kPa, Liquid, Vibrating tube method
[2] = xn = mol fraction of the nth substance listed; settings: for surface tension liquid-gas: Wilhelmy-plate method; for mass density: 100 kPa, Liquid, Vibrating tube method

SMILES: CC(O)CO (centres undefined) [1,2-propanediol]
surface tension liquid-gas ([1]; 298.15 K): 35.74 ± 0.2 mN/m | mass density ([1]; 298.15 K): 1032.69 ± 0.05 kg/m3 | surface tension liquid-gas ([1]; 308.15 K): 35.35 ± 0.2 mN/m | mass density ([1]; 308.15 K): 1025.21 ± 0.05 kg/m3 | surface tension liquid-gas ([1]; 318.15 K): 34.96 ± 0.2 mN/m | mass density ([1]; 318.15 K): 1017.51 ± 0.04 kg/m3 | surface tension liquid-gas ([1]; 328.15 K): 34.6 ± 0.2 mN/m | mass density ([1]; 328.15 K): 1009.78 ± 0.04 kg/m3

SMILES: CC(C)O [propan-2-ol]
surface tension liquid-gas ([1]; 298.15 K): 20.85 ± 0.05 mN/m | mass density ([1]; 298.15 K): 781.18 ± 0.12 kg/m3 | surface tension liquid-gas ([1]; 308.15 K): 20.1 ± 0.05 mN/m | mass density ([1]; 308.15 K): 772.32 ± 0.12 kg/m3 | surface tension liquid-gas ([1]; 318.15 K): 19.4 ± 0.05 mN/m | mass density ([1]; 318.15 K): 763.61 ± 0.13 kg/m3 | surface tension liquid-gas ([1]; 328.15 K): 18.75 ± 0.05 mN/m | mass density ([1]; 328.15 K): 754.84 ± 0.13 kg/m3

SMILES: CC(C)O [propan-2-ol] + CC(O)CO
surface tension liquid-gas ([2]; 298.15 K, x1 = 1): 20.85 ± 0.2 mN/m | mass density ([2]; 298.15 K, x1 = 1): 781.18 ± 0.12 kg/m3 | surface tension liquid-gas ([2]; 308.15 K, x1 = 1): 20.1 ± 0.2 mN/m | mass density ([2]; 308.15 K, x1 = 1): 772.32 ± 0.12 kg/m3 | surface tension liquid-gas ([2]; 318.15 K, x1 = 1): 19.4 ± 0.2 mN/m | mass density ([2]; 318.15 K, x1 = 1): 763.61 ± 0.13 kg/m3 | surface tension liquid-gas ([2]; 328.15 K, x1 = 1): 18.75 ± 0.2 mN/m | mass density ([2]; 328.15 K, x1 = 1): 754.84 ± 0.13 kg/m3

More lines, now with the values ahead:

surface tension liquid-gas ([1]; 298.15 K): 72.03 ± 0.2 mN/m | surface tension liquid-gas ([1]; 308.15 K): 70.3 ± 0.2 mN/m | surface tension liquid-gas ([1]; 318.15 K): 68.7 ± 0.2 mN/m | surface tension liquid-gas ([1]; 328.15 K): 66.9 ± 0.2 mN/m | mass density ([1]; 328.15 K): 985.66 ± 0.04 kg/m3
SMILES: O [water]

surface tension liquid-gas ([2]; 298.15 K, x2 = 0): 72.03 ± 0.2 mN/m | surface tension liquid-gas ([2]; 308.15 K, x2 = 0): 70.3 ± 0.2 mN/m | surface tension liquid-gas ([2]; 318.15 K, x2 = 0): 68.7 ± 0.2 mN/m | surface tension liquid-gas ([2]; 328.15 K, x2 = 0): 66.9 ± 0.2 mN/m | mass density ([2]; 328.15 K, x2 = 0): 985.66 ± 0.04 kg/m3
SMILES: O [water] + CC(O)CO
